The text below walks through data of US7932384B2, “Reverse-turn mimetics and method relating thereto” (Choongwae Pharma Corporation, priority 2001, dated 2011).

Assay [1] concerns HCT116 cells. The experiment in a line: Flow cytometric analysis (FACS) of cell cycle, HCT116. It counts as cell-based. The settings on record: HCT116, 25 μM, 24 hours. As to the method:
For FACS analysis, approx. 5×10^6 cells from Compound D-treated or vehicle-treated were fixed with 70% chilled ethanol and stored at −20° C. for at least 30 minutes. The cells were washed once with 1×PBS and incubated with propidium iodine (PI) solution (85 μg/ml propidium iodine, 0.1% Nonidet P-40, 10 mg/ml RNAse) for 30 minutes at room temperature. 10,000 stained cells for each sample were acquired using Beckman Coulter EPICS XL-MCL Flow Cytometry and the percentage of cells in different phase of the cell cycle was determined by Expo32 ADC software (Coulter Corporation, Miami, Fla., 33196).
It has been shown that inhibition of the expression of the cyclin D1 gene causes arrest at the G1/S-phase of the cell cycle (Shintani et al., “Infrequent alternations of RB pathway (Rb-p16INK4A-cyclin D1) in adenoid cystic carcinoma of salivary glands,” Anticancer Res. 20:2169-75 (2000)). […] The cells were subsequently stained with propidium iodide (PI) and analyzed for DNA content by FACS cytofluorometry.

Assay [2] relates to caspase-3/7 in SW480 cells. The experiment in a line: Caspase-3/7 activity assay, SW480. The assay is classed as cell-based. Conditions: SW480, 25 μM, 24 hours, compared to CCD18Co cells. Here is the method:
SW480, HCT116, and CCD18Co cells were plated at 10^5 cells per well (96-well plates) for 24 hours prior to treatment. […] 24 hours post treatment, cells were lysed and caspase activity was measured using a caspase-3/7 activity kit (Apo-One Homogeneous caspase-3/7 assay, #G77905, Promega). Relative fluorescence units (RFU) were obtained by subtracting the unit values of the blank (control, without cells) from the experimental measured values.
Caspases are cysteine proteases that are generally activated in a given population of cells triggered by apoptotic stimuli.

Assay [3] deals with MIC-1. The experiment in a line: Real time RT-PCR gene expression, MIC-1. It counts as cell-based. The settings on record: 25 μM, 24 hours; <0.5 significant decrease, >1.5 significant increase. Here is the method:
(§1) Real time reverse transcription-PCR analysis was performed according to the protocol provided with the SYBR Green PCR Master Mix Kit (Perkin Elmer Biosystems, Shelton, ST). […] The primers used for the RT-PCR reactions were [NT] and [NT].
Background: In qPCR the cycle at which signal appears reflects the starting amount.

Assay [4] has as its system PCNA. The experiment in a line: Real time RT-PCR gene expression, PCNA. The assay is classed as cell-based. The settings on record: 25 μM, 24 hours; <0.5 significant decrease, >1.5 significant increase. As to the method:
as §1

The subject of assay [5] is SW480 cells. The experiment in a line: Soft agar colony formation assay. Conditions: SW480, 0.25-5 μM. The assay is classed as cell-based. Here is the method: The soft agar colony formation assay was conducted with SW480 cells by some modification of the procedure previously described (Moody et al., “A vasoactive intestinal peptide antagonist inhibits non-small cell lung cancer growth,” Proc. Natl. Acad. Sci. USA. 90:4345-49 (1993)).
Each well (35 mm) of a 6-well plate (Nalge Nunc International, Roskide, Denmark) was coated with 1 ml of 0.8% bottom agar in DMEM medium containing 10% fetal bovine serum. After it was solidified, 1 ml of DMEM medium containing 0.4% top agar, 10% fetal bovine serum, compound doubly concentrated, and 5,000 single viable cells was added to each well. The cultures were incubated at 37° C. in humidified 5% CO2 incubator. Colonies in soft agar were monitored daily and photographed after incubation for 8 days. Colonies>60 μm in diameter were counted.

The subject of assay [6] is Ephrin B2 (EphB2) receptor. As to the kind of experiment: EphB2 receptor expression (immunofluorescence and RT-PCR) in PC-12 PS-1/L286V cells. It counts as cell-based, Rat. The settings on record: PS-1/L286V mutant PC-12 cells, 10 μM. As to the method: Immunofluorescence. Cells were plated at a density of 10,000 cells/cm^2 on sterile coated 22×22 mm coverslips in a 6-well culture plate. Differentiation was initiated, as previously described, for 10 days. The differentiated cells were then fixed in methanol for 15 minutes at −20° C. This is followed by a 15 minutes incubation with PBS+0.1% Triton X-100. The coverslips were incubated with antibodies raised against Ephrin B2 Receptor (Santa Cruz Biotechnology) and Gap-43 (Novus Biologicals) for 40 minutes at 37° C. After a series of washes with PBS-Triton X-100, secondary antibody conjugated to FITC (Jackson ImmunoResearch, Westgrove, Pa.) was applied. All slides images were acquired using a Nikon PCM2000 Laser Scanning Confocal Microscope mounted on a Nikon Eclipse E600 upright microscope (Nikon, Melville, N.Y.).
RT-PCR. To analyze the mRNA levels for Ephrin B2 (EphB2) receptor, total RNA was isolated using Trizol (Invitrogen-GIBCO-BRL, Baltimore, Md.) from differentiated cells. 2 μg RNA was reverse transcribed in a total volume of 20 μl with random hexamer (50 ng), and using the Superscript II reverse transcription system (Invitrogen-GIBCO-BRL), according to manufacturer's guidelines. PCR was carried out in a 50 μl volume containing 5 μl cDNA, 100 pmol primers, 100 μM dNTPs, 1×Taq buffer and 1.5 mM MgCl2. […]

Assay [7] deals with cultured tumor cells. As to the kind of experiment: FACS analysis of cells in G0, cultured tumor cells. It counts as cell-based. Conditions: 5 μM.
Assay [8] deals with surviving protein. As to the kind of experiment: Survivin immunofluorescence microscopy in SW480 cells. It counts as cell-based.
The test system of assay [9] is PC-12 cells overexpressing PS-1/L286V. The experiment in a line: Neurite outgrowth and differentiation of PC-12 PS-1/L286V cells. The settings on record: PS-1/L286V mutant PC-12 cells, 10 μM plus NGF. The assay is classed as cell-based, Rat. As to the method: Cell Differentiation. Cell culture dishes were pre-coated overnight with 0.25 mg/ml collagen (Cohesion, CA), 10 μg/ml Poly-L-Lysine (Sigma-Aldrich, St. Louis, Mo.) and 12 μg/ml Polyethyleneimine (ICN, La Mesa, Calif.). Cells were cultured on coated dishes at 15,000 cells/cm^2, and differentiated into a neuron-like phenotype by incubation in medium with reduced serum (1% fetal bovine serum), containing 50 ng/ml nerve growth factor (NGF) (Sigma-Aldrich) for 10 days. NGF-containing medium was changed every 2-3 days.
Differentiated PC-12/L286V cells were treated with increasing concentrations of this compound for 4 hours. Transfection was then initiated after this treatment period.
Quantitation of Neurite Outgrowth. Cell counts were taken from six randomly chosen microscopic fields (10×). […] The number of cells with such outgrowths was then expressed as a percentage of the total number of cells. Values obtained were from duplicates of three independent experiments.

Assay [10] has as its system surviving protein. As to the kind of experiment: Western blot analysis of survivin protein. The settings on record: 10 μM or 25 μM. The assay is classed as cell-based.
The target of assay [11] is β-catenin/CBP interaction (Homo sapiens, UniProt Q92793). The settings on record: Emami et al., Cancer Cell, in press; cited from earlier work.
β-catenin/CBP interaction, sequence (Q92793 whole entry): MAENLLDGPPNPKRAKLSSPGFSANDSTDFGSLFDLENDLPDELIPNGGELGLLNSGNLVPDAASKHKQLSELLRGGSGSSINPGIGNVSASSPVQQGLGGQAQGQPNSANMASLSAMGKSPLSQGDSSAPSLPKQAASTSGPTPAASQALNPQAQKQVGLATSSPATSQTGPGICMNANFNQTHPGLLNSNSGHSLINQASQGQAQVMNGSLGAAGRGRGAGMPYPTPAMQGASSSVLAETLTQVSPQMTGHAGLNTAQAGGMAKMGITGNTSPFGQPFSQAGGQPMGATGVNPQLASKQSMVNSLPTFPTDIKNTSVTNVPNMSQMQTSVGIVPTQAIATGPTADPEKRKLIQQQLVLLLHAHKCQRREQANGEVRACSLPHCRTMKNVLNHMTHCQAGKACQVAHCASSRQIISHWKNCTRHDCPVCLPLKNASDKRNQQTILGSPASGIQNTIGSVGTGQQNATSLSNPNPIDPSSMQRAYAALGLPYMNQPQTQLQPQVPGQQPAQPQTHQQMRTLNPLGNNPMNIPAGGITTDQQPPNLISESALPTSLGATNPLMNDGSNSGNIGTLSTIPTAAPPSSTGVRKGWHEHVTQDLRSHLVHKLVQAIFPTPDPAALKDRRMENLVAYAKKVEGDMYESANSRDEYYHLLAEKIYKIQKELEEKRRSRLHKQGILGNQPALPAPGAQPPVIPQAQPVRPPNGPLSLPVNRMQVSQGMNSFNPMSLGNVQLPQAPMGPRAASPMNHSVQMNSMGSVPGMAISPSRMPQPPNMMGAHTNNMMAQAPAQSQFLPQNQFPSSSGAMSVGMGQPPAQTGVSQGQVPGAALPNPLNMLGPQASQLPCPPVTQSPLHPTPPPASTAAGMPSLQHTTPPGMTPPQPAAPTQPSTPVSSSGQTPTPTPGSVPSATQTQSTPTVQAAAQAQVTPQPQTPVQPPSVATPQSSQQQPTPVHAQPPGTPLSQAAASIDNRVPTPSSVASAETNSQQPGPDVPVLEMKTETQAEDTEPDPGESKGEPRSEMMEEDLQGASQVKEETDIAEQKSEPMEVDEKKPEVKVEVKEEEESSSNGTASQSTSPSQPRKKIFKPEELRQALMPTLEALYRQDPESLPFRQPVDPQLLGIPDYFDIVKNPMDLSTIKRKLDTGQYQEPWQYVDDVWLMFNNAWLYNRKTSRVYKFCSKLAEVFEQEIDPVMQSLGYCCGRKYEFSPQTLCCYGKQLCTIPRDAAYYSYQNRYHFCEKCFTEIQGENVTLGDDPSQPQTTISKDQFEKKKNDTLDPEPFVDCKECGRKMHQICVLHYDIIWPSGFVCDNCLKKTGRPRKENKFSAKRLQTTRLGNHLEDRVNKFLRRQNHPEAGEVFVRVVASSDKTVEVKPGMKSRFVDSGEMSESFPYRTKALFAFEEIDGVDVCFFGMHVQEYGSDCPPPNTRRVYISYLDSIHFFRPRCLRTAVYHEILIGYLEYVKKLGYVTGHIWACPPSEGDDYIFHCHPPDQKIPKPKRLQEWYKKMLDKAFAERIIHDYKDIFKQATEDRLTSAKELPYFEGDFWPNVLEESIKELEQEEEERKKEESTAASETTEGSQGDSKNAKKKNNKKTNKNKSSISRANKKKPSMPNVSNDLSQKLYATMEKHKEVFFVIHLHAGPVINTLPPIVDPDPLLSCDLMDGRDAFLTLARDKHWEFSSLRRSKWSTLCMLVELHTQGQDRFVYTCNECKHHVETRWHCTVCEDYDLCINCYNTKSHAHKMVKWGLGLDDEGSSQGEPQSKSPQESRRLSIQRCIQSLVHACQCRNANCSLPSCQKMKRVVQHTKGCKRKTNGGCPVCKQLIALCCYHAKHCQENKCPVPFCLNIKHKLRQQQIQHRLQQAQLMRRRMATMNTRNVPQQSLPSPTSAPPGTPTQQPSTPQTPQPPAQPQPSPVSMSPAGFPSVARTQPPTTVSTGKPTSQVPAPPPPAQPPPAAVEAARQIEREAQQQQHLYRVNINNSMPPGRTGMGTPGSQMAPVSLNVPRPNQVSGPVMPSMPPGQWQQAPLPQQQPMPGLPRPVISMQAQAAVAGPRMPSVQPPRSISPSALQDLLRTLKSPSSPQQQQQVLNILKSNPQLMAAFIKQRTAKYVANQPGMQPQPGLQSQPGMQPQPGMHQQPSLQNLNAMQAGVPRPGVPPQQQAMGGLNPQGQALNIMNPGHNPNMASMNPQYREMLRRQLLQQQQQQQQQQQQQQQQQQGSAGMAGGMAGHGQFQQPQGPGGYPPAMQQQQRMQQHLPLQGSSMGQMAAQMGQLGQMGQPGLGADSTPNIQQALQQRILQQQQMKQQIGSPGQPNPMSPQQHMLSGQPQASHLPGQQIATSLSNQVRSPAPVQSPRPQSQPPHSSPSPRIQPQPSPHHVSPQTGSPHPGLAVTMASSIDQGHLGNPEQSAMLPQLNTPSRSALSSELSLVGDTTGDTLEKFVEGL

For `O=C1[C@H](Cc2ccc(O)cc2)N2C(=O)CCN(C(=O)NCc3ccccc3)[C@H]2CN1Cc1cccc2ccccc12` [Compound D], in [1], the “cell cycle distribution (FACS, PI)” value is given as “increased accumulation at G1/S-phase of the cell cycle”. Moreover, the caspase-3/7 activity result in assay [2] is “specifically and significantly activated the caspase-3/7 pathway”. Also, the “Ratio (Treated/DMSO Control) MIC-1” value in [3] is on record as 7.0. The “Ratio (Treated/DMSO Control) PCNA” value in assay [4] is 0.33. In addition, the “number of colonies formed in soft agar” value in [5] is given as “dose dependent decrease in the number of colonies formed”. Also, the “EphB2 message (RT-PCR)” value in [6] is “increased EphB2 message”. In addition, the “number of cells in G0 (FACS)” value in assay [7] was “increase the number of cells in G0”. Further, the “survivin protein (immunofluorescence microscopy)” value in assay [8] is “little or no surviving protein was detected”. For the same molecule, the “percentage of cells bearing neurites greater than twice the length of the cell body” value in [9] is listed as “substantially increased the percentage of cells bearing neurites”. Moreover, in assay [9] (10 days), the “neurite outgrowth and differentiation” value is “essentially normal neurite outgrowth and differentiation”. Also, the “amount of survivin protein (Western blot)” value in assay [10] was “reduced the amount of the surviving protein”. Further, the “blocking of β-catenin/CBP interaction” value in assay [11] was “selectively blocks the β-catenin/CBP interaction”.
